Data: patent US20260256792A1, “TREATMENT OF CHRONIC SPONTANEOUS URTICARIA BY ADMINISTERING (R)-2-[3-[4-AMINO-3-(2-FLUORO-4-PHENOXY-PHENYL)PYRAZOLO[3,4-D]PYRIMIDIN-1-YL]PIPERIDINE-1-CARBONYL]-4-METHYL-4-[4-(OXETAN-3-YL)PIPERAZIN-1-YL]PENT-2-ENENITRILE” (priority 2023, published 2026)

Tested on: angioedema in CSU patients
Assay: Phase 2 CSU study: angioedema activity score over 7 days (AAS7)
Assay type: in vivo, human
Conditions: 400 mg TID; for AAS7 % Change difference for rilzabrutinib vs. placebo LS Mean (95% CI) / AAS7 % Change from baseline LS Mean (SE) / AAS7 = 0, Non-responder n (%) / AAS7 = 0, OR (95% CI) for rilzabrutinib vs. placebo / AAS7 = 0, RRD (%) for rilzabrutinib vs. placebo (95% CI) / AAS7 Post-baseline Mean (SD) / Participants with AAS7 = 0, Responder n (%) / AAS7 Change difference for rilzabrutinib vs. placebo LS Mean (95% CI) / AAS7 Change from baseline LS Mean (SE): angioedema at baseline; for Non-responder n (%), AAS7 = 0 / OR (95% CI) for rilzabrutinib vs. placebo, AAS7 = 0 / RRD (%) for rilzabrutinib vs. placebo (95% CI), AAS7 = 0 / Responder n (%), AAS7 = 0: outlier removed
Description: The study comprises a 12 week, randomized, double-blind, placebo-controlled, multi-center, dose-ranging efficacy and safety phase, followed by a 40 week open label extension (OLE) phase (see FIG. 1). The study consists of three phases and an optional OLE phase. […] The weekly angioedema activity score (AAS7) was proposed as a tertiary endpoint. […] Patients were to complete the AAS using the e-diary. The e-diary was to be used once daily on the same time of each day recording of participant's answers to the angioedema activity score over 7 days (AAS7) questionnaire.

CC(C)(C=C(C#N)C(=O)N1CCC[C@@H](n2nc(-c3ccc(Oc4ccccc4)cc3F)c3c(N)ncnc32)C1)N1CCN(C2COC2)CC1 [rilzabrutinib, (R)-2-[3-[4-amino-3-(2-fluoro-4-phenoxy-phenyl)pyrazolo[3,4-d]pyrimidin-1-yl]piperidine-1-carbonyl]-4-methyl-4-[4-(oxetan-3-yl)piperazin-1-yl]pent-2-enenitrile]
AAS7 % Change difference for rilzabrutinib vs. placebo LS Mean (95% CI) (Week 4, omalizumab-naïve): −49.61 (−90.06, −9.16) % | AAS7 % Change from baseline LS Mean (SE) (Week 4, omalizumab-naïve): −79.54 (14.89) % | AAS7 = 0, Non-responder n (%) (Week 4, omalizumab-naïve): 14 (60.9) n (%) | AAS7 = 0, OR (95% CI) for rilzabrutinib vs. placebo (Week 4, omalizumab-naïve): 1.519 | AAS7 = 0, RRD (%) for rilzabrutinib vs. placebo (95% CI) (Week 4, omalizumab-naïve): 7.3 % | AAS7 Post-baseline Mean (SD) (Week 4, omalizumab-naïve): 11.73 (16.82) | Participants with AAS7 = 0, Responder n (%) (Week 4, omalizumab-naïve): 9 (39.1) n (%) | AAS7 % Change from baseline LS Mean (SE) (Week 5, ITT): −69.87 (9.90) % | AAS7 Change difference for rilzabrutinib vs. placebo LS Mean (95% CI) (Week 5, ITT): −9.32 (−20.56, 1.93) | AAS7 Change from baseline LS Mean (SE) (Week 5, ITT): −38.91 (4.22) | Non-responder n (%), AAS7 = 0 (Week 5, omalizumab-naïve): 14 (41.2) n (%) | OR (95% CI) for rilzabrutinib vs. placebo, AAS7 = 0 (Week 5, omalizumab-naïve): 1.359 | RRD (%) for rilzabrutinib vs. placebo (95% CI), AAS7 = 0 (Week 5, omalizumab-naïve): 7.5 % | Responder n (%), AAS7 = 0 (Week 5, omalizumab-naïve): 20 (58.8) n (%) | AAS7 % Change difference for rilzabrutinib vs. placebo LS Mean (95% CI) (Week 5, omalizumab-naïve): −17.62 (−46.15, 10.90) % | AAS7 = 0, Non-responder n (%) (Week 5, omalizumab-naïve): 13 (56.5) n (%) | AAS7 = 0, OR (95% CI) for rilzabrutinib vs. placebo (Week 5, omalizumab-naïve): 1.550 | AAS7 = 0, RRD (%) for rilzabrutinib vs. placebo (95% CI) (Week 5, omalizumab-naïve): 9.8 % | AAS7 Post-baseline Mean (SD) (Week 5, omalizumab-naïve): 10.83 (15.39) | Participants with AAS7 = 0, Responder n (%) (Week 5, omalizumab-naïve): 10 (43.5) n (%) | AAS7 Change difference for rilzabrutinib vs. placebo LS Mean (95% CI) (Week 6, ITT): −11.42 (−23.52, 0.68) | AAS7 Change from baseline LS Mean (SE) (Week 6, ITT): −38.03 (4.48) | AAS7 Post-baseline Mean (SD) (Week 6, ITT): 12.73 (19.47) | Non-responder n (%), AAS7 = 0 (Week 6, omalizumab-naïve): 14 (41.2) n (%) | OR (95% CI) for rilzabrutinib vs. placebo, AAS7 = 0 (Week 6, omalizumab-naïve): 1.334 | RRD (%) for rilzabrutinib vs. placebo (95% CI), AAS7 = 0 (Week 6, omalizumab-naïve): 6.5 % | Responder n (%), AAS7 = 0 (Week 6, omalizumab-naïve): 20 (58.8) n (%) | AAS7 % Change difference for rilzabrutinib vs. placebo LS Mean (95% CI) (Week 6, omalizumab-naïve): −15.46 (−46.06, 15.15) % | AAS7 = 0, Non-responder n (%) (Week 6, omalizumab-naïve): 12 (52.2) n (%) | AAS7 = 0, OR (95% CI) for rilzabrutinib vs. placebo (Week 6, omalizumab-naïve): 1.874 | AAS7 = 0, RRD (%) for rilzabrutinib vs. placebo (95% CI) (Week 6, omalizumab-naïve): 13.5 % | AAS7 Post-baseline Mean (SD) (Week 6, omalizumab-naïve): 13.55 (20.58) | Participants with AAS7 = 0, Responder n (%) (Week 6, omalizumab-naïve): 11 (47.8) n (%) | AAS7 % Change difference for rilzabrutinib vs. placebo LS Mean (95% CI) (Week 7, ITT): −22.57 (−53.40, 8.26) % | AAS7 % Change from baseline LS Mean (SE) (Week 7, ITT): −68.52 (11.69) % | AAS7 Change difference for rilzabrutinib vs. placebo LS Mean (95% CI) (Week 7, ITT): −9.86 (−21.60, 1.88) | AAS7 Change from baseline LS Mean (SE) (Week 7, ITT): −37.16 (4.45) | AAS7 Post-baseline Mean (SD) (Week 7, ITT): 12.07 (15.62) | Non-responder n (%), AAS7 = 0 (Week 7, omalizumab-naïve): 15 (44.1) n (%) | OR (95% CI) for rilzabrutinib vs. placebo, AAS7 = 0 (Week 7, omalizumab-naïve): 1.277 | RRD (%) for rilzabrutinib vs. placebo (95% CI), AAS7 = 0 (Week 7, omalizumab-naïve): 6.5 % | Responder n (%), AAS7 = 0 (Week 7, omalizumab-naïve): 19 (55.9) n (%) | AAS7 % Change difference for rilzabrutinib vs. placebo LS Mean (95% CI) (Week 7, omalizumab-naïve): −20.11 (−53.85, 13.63) % | AAS7 % Change from baseline LS Mean (SE) (Week 7, omalizumab-naïve): −67.11 (12.58) % | AAS7 = 0, Non-responder n (%) (Week 7, omalizumab-naïve): 13 (56.5) n (%) | AAS7 = 0, OR (95% CI) for rilzabrutinib vs. placebo (Week 7, omalizumab-naïve): 1.351 | AAS7 = 0, RRD (%) for rilzabrutinib vs. placebo (95% CI) (Week 7, omalizumab-naïve): 7.2 % | AAS7 Post-baseline Mean (SD) (Week 7, omalizumab-naïve): 12.43 (15.87) | Participants with AAS7 = 0, Responder n (%) (Week 7, omalizumab-naïve): 10 (43.5) n (%) | AAS7 % Change difference for rilzabrutinib vs. placebo LS Mean (95% CI) (Week 8, ITT): −22.25 (−53.63, 9.12) % | AAS7 % Change from baseline LS Mean (SE) (Week 8, ITT): −74.30 (11.67) % | AAS7 Change difference for rilzabrutinib vs. placebo LS Mean (95% CI) (Week 8, ITT): −11.02 (−22.54, 0.50) | AAS7 Change from baseline LS Mean (SE) (Week 8, ITT): −39.35 (4.28) | AAS7 Post-baseline Mean (SD) (Week 8, ITT): 11.17 (12.56) | Non-responder n (%), AAS7 = 0 (Week 8, omalizumab-naïve): 19 (55.9) n (%) | OR (95% CI) for rilzabrutinib vs. placebo, AAS7 = 0 (Week 8, omalizumab-naïve): 0.964 | RRD (%) for rilzabrutinib vs. placebo (95% CI), AAS7 = 0 (Week 8, omalizumab-naïve): −0.9 % | Responder n (%), AAS7 = 0 (Week 8, omalizumab-naïve): 15 (44.1) n (%) | AAS7 % Change from baseline LS Mean (SE) (Week 8, omalizumab-naïve): −73.05 (12.72) % | AAS7 = 0, Non-responder n (%) (Week 8, omalizumab-naïve): 17 (73.9) n (%)
